Common to all, as to type: in vivo, Sprague-Dawley (SD) rats
Assay [1] concerns neuron apoptosis-operated rats. Briefly: Example 2 water tank task (water maze). The protocol: Cognitive testing was conducted using the water tank task (J Neurosci Methods. 11:47-60(1984)). On the days 14 and 28 after neuron apoptosis, the rats were given a series of 3 trials, 10 min apart in a large dark-colored tank (150 cm in diameters×50 cm in height) filled with clear water at a temperature of 22.0±1.0° C. A 15×30 cm submerged platform (2 mm below water surface) was placed in the northwest quadrant of the pool. The release point was always the southern end of the pool. The rats were lowered into the pool facing the wall and were released. The swim paths of the rats for each trials were recorded with a computer interfaced camera tracking system (Smart junior, PanLab, Spain), and the distances (m) and times (sec) taken to reach the escape platform were measured.
(§1) All data were expressed as mean±standard deviation (S.D.) of ten rats. Multiple comparison tests for different dose groups were conducted. Variance homogeneity was examined using the Levene test (Levene A, Clin Otalary, 1981; 6:145-51). […] Statistical analyses were conducted using SPSS for Windows (Release 14K, SPSS Inc., USA; Ludbrook, Clin Exp Pharmacol Physiol, 1997; 24:294-6). In addition, the percent changes as compared with neuron apoptosis control and mirodenafil treated rats were calculated to help the understanding of the efficacy of test substances as follow Equation 6 and 7. Percentage Changes as Compared with Sham Control (%)=[((Data of neuron apoptosis control−Data of sham control rat)/Data of sham control rats)×100] [EQUATION 6] Percentage Changes as Compared with neuron apoptosis Control (%)=[((Data of test material treated rats−Data of neuron apoptosis control rats)/Data of neuron apoptosis control rats)×100] [EQUATION 7]

The test system of another assay is PARP. Briefly: Example 2 immunohistochemistry: PARP-immunoreactive cells. To be noted: for Numbers of neurons: PARP+: 1 mg/kg s.c. once a day for 14 days, 29 days after neuron apoptosis. The protocol: The induction of neuron apoptosis was carried out by damaging the right hemisphere of the brain of animals. Specifically, animals were anesthetized with 2 or 3% isoflurane in the mixture of 70% N2O and 28.5% O2, and were maintained with 1 to 1.5% isoflurane in the mixture of 70% N2O and 28.5% O2. After that the temporalis muscle was bisected and reflected through an incision made midway between the eye and the eardrum canal. The proximal MCA was exposed through a subtemporal craniectomy by microdental drills without removing the zygomatic arch and without transecting the facial nerve. […] Mortality was less than 5%. For sham control, all procedures were performed in the same way, with the exception of the occlusion of the MCA.
After deparaffinized of prepared […] histological paraffin sections, citrate buffer antigen (epitope) retrieval pretreatment were conducted as previously (Shi S R et al., J Histochem Cytochem. 41:1599-604(1993)). Briefly, pre-heat water bath with staining dish containing 10 mM citrate buffers (pH 6.0) until temperature reaches 95-100° C. Immerse slides in the staining dish and place the lid loosely on the staining dish. Incubate for 20 minutes and turn off the water bath. Place the staining dish at room temperature and allow the slides to cool for 20 minutes. After epitope retrievals, sections were immunostained using avidin-biotin complex (ABC) methods for caspase-3 and PARP. Endogenous peroxidase activity was blocked by incubated in methanol and 0.3% H2O2 for 30 minutes, and non-specific binding of immunoglobulin was blocked with normal horse serum blocking solution (Vector Lab., Burlingame, Calif., USA. Dilution 1:100) for 1 hr in humidity chamber. Primary antiserum were treated for overnight at 4° C. in humidity chamber, and then incubated with biotinylated universal secondary antibody (Vector Lab., Dilution 1:50) and ABC reagents (Vectastain Elite ABC Kit, Vector Lab., Dilution 1:50) for 1 hr at room temperature in humidity chamber. Finally, reacted with peroxidae substrate kit (Vector Lab.) for 3 min at room temperature. All sections were rinse in 0.01M PBS for 3 times, between steps. The neurons occupied by over 10% of immunoreactivities, the density, of each antiserum for caspase-3 and PARP were regarded as positive, and the mean numbers of caspase-3 and PARPimmunoreactive cells dispersed in the mm^2 of ipsilateral peri-infarct/defect cerebral cortex were counted using an automated image analysis process as establish methods (Lee et al., 2010; Song et al., 2012), respectively. The histopathologist was blinded to the group distribution when performing the analysis.
as §1

Assay [2] concerns neuron apoptosis-operated rats. Briefly: Example 2 body swing test. The protocol: Sensorimotor function was evaluated by use of limb placing (de Ryck M et al., Stroke. 20:1383-90(1989)) and body swing (Borlongan and Sanberg, J Neurosci. 15:5372-8(1995)) tests. These tests were performed at 1 and 28 days after neuron apoptosis. The investigator performing the surgery and behavioral assessments was blinded to treatment assignment.
Body swing tests: Animals were held approximately 2 cm from the base of its tail and elevated to an inch above a surface of a table. A swing was recorded whenever the rat moved its head out of the vertical axis to either side by more than 10° from vertical and then returned to the vertical position. Thirty total swings were counted per animal. After right-hemisphere neuron apoptosis, animals tend to swing to the contralateral (left) side. Thus, the numbers and percentages of body swings to the ipsilateral (right) side were recorded as a measure of recovery, with an intact animal scoring.
as §1

Setting [3] is: 1 mg/kg from 24 hrs after surgery.
[4] abbreviates: 1 mg/kg from 72 hrs after surgery.
[5] abbreviates: 1 mg/kg from 168 hrs after surgery.

As for `CCCOc1ccc(S(=O)(=O)N2CCN(CCO)CC2)cc1-c1nc2c(CCC)cn(CC)c2c(=O)[nH]1` [Mirodenafil, mirodenafil], the “mean distances to reach the escape platform at 28 days, change as compared with neuron apoptosis control” value in assay [1] (setting [3]) was −26.45%; in assay [1] (setting [4]), −16.05%; in assay [1] (setting [5]), −6.42%. For the same molecule, the “mean time to reach the escape platform at 28 days, change as compared with neuron apoptosis control” value is given as −24.49% in assay [1] (setting [3]), −17.33% in assay [1] (setting [4]) and −5.36% in assay [1] (setting [5]). Besides, the “numbers of PARP-immunoreactive neurons at 29 days, change as compared with neuron apoptosis control” value with PARP (setting [3]) is −53.92%; in the assay on PARP (setting [4]), −39.72%; with PARP (setting [5]) it was −15.68%. Moreover, the “Numbers of neurons: PARP+” value was 36.14 ± 5.32^ab cells/mm^2 of cerebral cortex with PARP (start 24 hrs after operation), 47.28 ± 5.36^ab cells/mm^2 of cerebral cortex with PARP (start 72 hrs after operation) and 66.13 ± 9.61^ac cells/mm^2 of cerebral cortex in the assay with PARP (start 168 hrs after operation). The “numbers and percentages of body swings to ipsilateral right sides at 28 days, change as compared with neuron apoptosis control” value was 82.00% in assay [2] (setting [3]), 48.00% in assay [2] (setting [4]) and 14.00% in assay [2] (setting [5]).

Source of the values: US10064865B2, “Composition comprising phosphodiesterase type 5 inhibitor for inhibiting apoptosis of nerve cells” (ARIBIO INC., priority 2012, dated 2018).
